We go through 6 compounds from ChEMBL document CHEMBL1201862, “PubChem BioAssay data set” (2004).

Test [1] has as its target Fructose-bisphosphate aldolase (Mycobacterium tuberculosis, UniProt P9WQA3). The test can be described thus: Fluorescence-based biochemical high throughput dose response assay for inhibitors of the fructose-bisphosphate aldolase (FBA) of M. tuberculosis. The test is classed as functional.
Test [2] can be described thus: HEK293T cytotoxicity, dose response, cytotoxicity control for miR-122 modulator project, cell-based, inhibitor set, cherry-pick, set 2 (AID 720697). The test is classed as functional.
The nature of test [3]: HEK293T cell cytotoxicity, dose response, cytotoxicity control, CellTiter-Glo luminescence, cherry-picked samples, set 4 (AID 743441). To be noted: HEK293. The test is classed as functional, cell-based. On the technique in general: In ATP-based viability assays light output follows the ATP content of the culture.
A short description of test [4]: Luminescence Cell-Based Dose Retest to Confirm Inhibitors of Cancer Stem Cells. [Related pubchem assays (depositor defined):AID2717, AID2721]. It is filed as functional. To be noted: Homo sapiens.
A further test deals with H9c2. Description: cells. The test is classed as functional, cell-based. Conditions: Rattus norvegicus, H9c2, Myocardium.
The nature of test [5]: Vibrio cholerae quorum sensing activators (AID 686977). It is filed as functional.
A further test concerns Vero. The test can be described thus: Vero cell toxicity, dose response, cytotoxicity control, plate reader, cherry-pick samples (AID 687020). It is filed as functional, cell-based. Conditions: Chlorocebus sabaeus.
Another test has as its system A549. Description: A549 cell toxicity, dose response, cytotoxicity control, plate reader, cherry-pick samples (AID 687028). Conditions: Homo sapiens. The test is classed as functional, cell-based.
Test [6] concerns the target Broad substrate specificity ATP-binding cassette transporter ABCG2 (Homo sapiens, UniProt Q9UNQ0). Description: ABCG2 efflux pump inhibitors, dose response, Ig-MXP3 cells, flow cytometry (AID 1690). It is filed as functional. A general note: Flow cytometry measures light scatter and fluorescence of single cells or particles in a stream.

The source made the active and inactive calls.

Fructose-bisphosphate aldolase, sequence (P9WQA3 whole entry): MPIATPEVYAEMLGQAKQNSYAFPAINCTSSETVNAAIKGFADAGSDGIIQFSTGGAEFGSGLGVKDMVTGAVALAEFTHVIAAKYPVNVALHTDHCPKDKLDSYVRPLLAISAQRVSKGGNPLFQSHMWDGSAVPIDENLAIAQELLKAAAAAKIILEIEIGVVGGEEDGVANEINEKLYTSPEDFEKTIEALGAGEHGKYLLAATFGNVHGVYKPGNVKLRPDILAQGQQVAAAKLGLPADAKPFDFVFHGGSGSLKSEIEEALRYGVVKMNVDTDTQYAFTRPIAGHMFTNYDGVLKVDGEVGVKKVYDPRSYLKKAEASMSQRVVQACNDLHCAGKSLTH
Broad substrate specificity ATP-binding cassette transporter ABCG2, sequence (Q9UNQ0 whole entry): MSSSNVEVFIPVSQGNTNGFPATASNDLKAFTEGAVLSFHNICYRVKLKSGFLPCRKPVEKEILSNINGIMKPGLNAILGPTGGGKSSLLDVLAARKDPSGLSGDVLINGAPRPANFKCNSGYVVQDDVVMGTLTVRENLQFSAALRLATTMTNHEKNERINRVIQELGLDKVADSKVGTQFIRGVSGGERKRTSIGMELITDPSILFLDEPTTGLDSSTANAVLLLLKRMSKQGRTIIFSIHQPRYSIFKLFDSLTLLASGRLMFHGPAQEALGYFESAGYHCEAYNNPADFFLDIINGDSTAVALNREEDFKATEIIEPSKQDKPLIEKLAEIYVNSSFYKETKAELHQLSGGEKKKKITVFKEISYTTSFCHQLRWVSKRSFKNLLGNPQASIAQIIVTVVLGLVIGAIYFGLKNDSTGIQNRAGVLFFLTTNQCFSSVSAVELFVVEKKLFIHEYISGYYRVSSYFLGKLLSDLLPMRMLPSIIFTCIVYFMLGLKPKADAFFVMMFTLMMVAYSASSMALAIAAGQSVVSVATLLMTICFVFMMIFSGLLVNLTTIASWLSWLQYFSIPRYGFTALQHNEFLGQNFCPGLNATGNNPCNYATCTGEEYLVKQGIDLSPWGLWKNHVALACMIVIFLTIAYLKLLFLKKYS

As a reminder, the IC50 is the concentration at which inhibition is half-maximal. Turning to `CC1=CC2=NCC(O)CN2C=C1` (centres undefined), in [1], the IC50 was 5.11 µM (active).

In general, AC50 refers to the concentration at which the activity in the assay is half-maximal. As to `O=C1NC(=O)N(CCC2=CCCCC2)C(=O)/C1=C\c1cccs1`, the AC50 in test [2] is 1.06 µM (active).

On to `COc1ccc(-n2cc(-c3ccccc3)c3c(N4CCOCC4)ncnc32)cc1`, for which the AC50 in test [3] was 48.5 µM (active); in test [4], 3.78 µM (active). Also, the IC50 with H9c2 is > 79 µM (inactive).

For the compound `O=C(Nc1ccc(F)cc1F)c1sccc1SCc1cccc(C(F)(F)F)c1`, the IC50 in [5] was 77.9 µM (active).

As to `COc1ccc(S(=O)(=O)N(CC(C)C)CC(C)C)c2cccnc12`, the half-maximal activity concentration (AC50) in the test on Vero was 39 µM (active); with A549 it was 19.5 µM (active).

In general, EC50 refers to the concentration giving half of the maximal effect. With `CC1=NN(c2ccc([N+](=O)[O-])cc2)C(=O)/C1=C/N(C)C`, the EC50 in test [6] is 4 µM (active).
